Columns and labels:
Experiment in all cases: relative viability (nuclei count vs DMSO), 5 days (fraction); higher = more cells survive
ABC-1 = system: ABC-1
In short: (§1)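 After 5 days of treatment, lung cancer cells in 1536-well plates were fixed and stained in a single step (final 0.05% Triton X-100, 1% formaldehyde, 1 ug/ml Hoechst) and their nuclei counted on 4× images. Treatment had been applied by pin tool the day after seeding as one drug alone or as a fixed anchor-drug dose with five library-drug doses (not always all listed) in √10 steps. Relative viability is the nuclei count of treated wells divided by that of vehicle wells, and values are medians of duplicate plates.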

CAL-12T = system: CAL-12T
In short: as §1

ChaGo-K-1 = system: ChaGo-K-1
In short: as §1

HCC-366 = system: HCC-366
In short: as §1

HCC-78 = system: HCC-78
In short: as §1

LC-2-ad = system: LC-2-ad
In short: as §1

LOU-NH91 = system: LOU-NH91
In short: as §1

LU99A = system: LU99A
In short: as §1

NCI-H1395 = system: NCI-H1395
In short: as §1

NCI-H1651 = system: NCI-H1651
In short: as §1

NCI-H1734 = system: NCI-H1734
In short: as §1

NCI-H1755 = system: NCI-H1755
In short: as §1

NCI-H1793 = system: NCI-H1793
In short: as §1

NCI-H1944 = system: NCI-H1944
In short: as §1

NCI-H2087 = system: NCI-H2087
In short: as §1

NCI-H2170 = system: NCI-H2170
In short: as §1

NCI-H2405 = system: NCI-H2405
In short: as §1

NCI-H3122 = system: NCI-H3122
In short: as §1

NCI-H460 = system: NCI-H460
In short: as §1

PC-3 [JPC-3] = system: PC-3 [JPC-3]
In short: as §1

RERF-LC-KJ = system: RERF-LC-KJ
In short: as §1

How did the relative viability (ABC-1; first compound 0.04 µM) turn out when `O=C(O)c1ccc(-c2c[nH]c3ncc(-c4ccccc4)cc23)cc1C1CCCC1` + NC(=O)Nc1cc(-c2cccc(F)c2)sc1C(=O)N[C@H]1CCCNC1 [AZD7762] (partner 0.2 µM) was run?
Its relative viability is 0.726.

What about the relative viability (ABC-1; first compound 0.1265 µM) of the same compound?
The relative viability was 0.965.

What about the relative viability (ABC-1; first compound 0.4 µM) of the same compound?
Its relative viability is 0.89.

And the relative viability (ABC-1; first compound 1.265 µM)?
The relative viability was 0.837.

What about the relative viability (CAL-12T; first compound 0.04 µM) of the same compound?
Its relative viability is 0.632.

What about the relative viability (CAL-12T; first compound 0.1265 µM) of the same compound?
Its relative viability is 0.698.

And the relative viability (CAL-12T; first compound 0.4 µM)?
The relative viability was 0.629.

What about the relative viability (CAL-12T; first compound 1.265 µM) of the same compound?
Its relative viability is 0.671.

And the relative viability (ChaGo-K-1; first compound 0.04 µM)?
Its relative viability is 0.845.

What about the relative viability (ChaGo-K-1; first compound 0.1265 µM) of the same compound?
Its relative viability is 1.02.

And the relative viability (ChaGo-K-1; first compound 0.4 µM)?
Its relative viability is 0.907.

And the relative viability (ChaGo-K-1; first compound 1.265 µM)?
The relative viability was 0.848.

What about the relative viability (HCC-366; first compound 0.04 µM) of the same compound?
The relative viability was 0.274.

And the relative viability (HCC-366; first compound 0.1265 µM)?
The relative viability was 0.413.

And the relative viability (HCC-366; first compound 0.4 µM)?
The relative viability was 0.399.

And the relative viability (HCC-366; first compound 1.265 µM)?
Its relative viability is 0.43.

What about the relative viability (HCC-78; first compound 0.1265 µM) of the same compound?
Its relative viability is 0.734.

What about the relative viability (HCC-78; first compound 0.4 µM) of the same compound?
The relative viability was 0.779.

What about the relative viability (HCC-78; first compound 1.265 µM) of the same compound?
The relative viability was 0.712.

What about the relative viability (LC-2-ad; first compound 0.04 µM) of the same compound?
Its relative viability is 0.853.

What about the relative viability (LC-2-ad; first compound 0.1265 µM) of the same compound?
The relative viability was 0.926.

And the relative viability (LC-2-ad; first compound 0.4 µM)?
The relative viability was 0.835.

What about the relative viability (LC-2-ad; first compound 1.265 µM) of the same compound?
The relative viability was 0.812.

And the relative viability (LOU-NH91; first compound 0.04 µM)?
Its relative viability is 0.818.

What about the relative viability (LOU-NH91; first compound 0.1265 µM) of the same compound?
Its relative viability is 0.866.

And the relative viability (LOU-NH91; first compound 0.4 µM)?
Its relative viability is 0.787.

What about the relative viability (LOU-NH91; first compound 1.265 µM) of the same compound?
The relative viability was 0.769.

And the relative viability (LU99A; first compound 0.04 µM)?
The relative viability was 0.486.

And the relative viability (LU99A; first compound 0.1265 µM)?
The relative viability was 0.522.

And the relative viability (LU99A; first compound 0.4 µM)?
The relative viability was 0.421.

What about the relative viability (LU99A; first compound 1.265 µM) of the same compound?
Its relative viability is 0.411.

What about the relative viability (NCI-H1395; first compound 0.04 µM) of the same compound?
The relative viability was 0.416.

And the relative viability (NCI-H1395; first compound 0.1265 µM)?
The relative viability was 0.416.

What about the relative viability (NCI-H1395; first compound 0.4 µM) of the same compound?
Its relative viability is 0.409.

What about the relative viability (NCI-H1395; first compound 1.265 µM) of the same compound?
The relative viability was 0.462.

What about the relative viability (NCI-H1651; first compound 0.04 µM) of the same compound?
The relative viability was 0.326.

And the relative viability (NCI-H1651; first compound 0.1265 µM)?
The relative viability was 0.56.

And the relative viability (NCI-H1651; first compound 0.4 µM)?
Its relative viability is 0.551.

And the relative viability (NCI-H1651; first compound 1.265 µM)?
The relative viability was 0.426.

And the relative viability (NCI-H1734; first compound 0.04 µM)?
Its relative viability is 0.534.

And the relative viability (NCI-H1734; first compound 0.1265 µM)?
The relative viability was 0.68.

And the relative viability (NCI-H1734; first compound 0.4 µM)?
The relative viability was 0.606.

And the relative viability (NCI-H1734; first compound 1.265 µM)?
Its relative viability is 0.645.

What about the relative viability (NCI-H1755; first compound 0.04 µM) of the same compound?
The relative viability was 0.488.

And the relative viability (NCI-H1755; first compound 0.1265 µM)?
The relative viability was 0.521.

What about the relative viability (NCI-H1755; first compound 0.4 µM) of the same compound?
Its relative viability is 0.547.

What about the relative viability (NCI-H1755; first compound 1.265 µM) of the same compound?
Its relative viability is 0.523.

What about the relative viability (NCI-H1793; first compound 0.04 µM) of the same compound?
Its relative viability is 0.513.

And the relative viability (NCI-H1793; first compound 0.1265 µM)?
The relative viability was 0.752.

What about the relative viability (NCI-H1793; first compound 0.4 µM) of the same compound?
Its relative viability is 0.544.

What about the relative viability (NCI-H1793; first compound 1.265 µM) of the same compound?
The relative viability was 0.798.

What about the relative viability (NCI-H1944; first compound 0.04 µM) of the same compound?
The relative viability was 0.464.

And the relative viability (NCI-H1944; first compound 0.1265 µM)?
The relative viability was 0.622.

And the relative viability (NCI-H1944; first compound 0.4 µM)?
Its relative viability is 0.637.

And the relative viability (NCI-H1944; first compound 1.265 µM)?
The relative viability was 0.802.

And the relative viability (NCI-H2087; first compound 0.04 µM)?
The relative viability was 1.29.

What about the relative viability (NCI-H2087; first compound 0.1265 µM) of the same compound?
Its relative viability is 1.44.

And the relative viability (NCI-H2087; first compound 0.4 µM)?
Its relative viability is 1.23.

And the relative viability (NCI-H2087; first compound 1.265 µM)?
Its relative viability is 1.11.

And the relative viability (NCI-H2170; first compound 0.04 µM)?
Its relative viability is 0.933.

And the relative viability (NCI-H2170; first compound 0.1265 µM)?
The relative viability was 1.03.

What about the relative viability (NCI-H2170; first compound 0.4 µM) of the same compound?
The relative viability was 0.895.

And the relative viability (NCI-H2170; first compound 1.265 µM)?
The relative viability was 0.82.

What about the relative viability (NCI-H2405; first compound 0.04 µM) of the same compound?
The relative viability was 0.73.

And the relative viability (NCI-H2405; first compound 0.1265 µM)?
Its relative viability is 0.919.

What about the relative viability (NCI-H2405; first compound 0.4 µM) of the same compound?
Its relative viability is 0.767.

What about the relative viability (NCI-H2405; first compound 1.265 µM) of the same compound?
Its relative viability is 0.583.

And the relative viability (NCI-H3122; first compound 0.04 µM)?
Its relative viability is 0.97.

What about the relative viability (NCI-H3122; first compound 0.1265 µM) of the same compound?
Its relative viability is 1.04.

And the relative viability (NCI-H3122; first compound 0.4 µM)?
The relative viability was 1.05.

And the relative viability (NCI-H3122; first compound 1.265 µM)?
The relative viability was 0.999.

And the relative viability (NCI-H460; first compound 0.04 µM)?
The relative viability was 0.625.

And the relative viability (NCI-H460; first compound 0.1265 µM)?
Its relative viability is 0.822.

What about the relative viability (NCI-H460; first compound 0.4 µM) of the same compound?
Its relative viability is 0.886.

And the relative viability (NCI-H460; first compound 1.265 µM)?
Its relative viability is 0.794.

And the relative viability (PC-3 [JPC-3]; first compound 0.04 µM)?
Its relative viability is 0.693.

What about the relative viability (PC-3 [JPC-3]; first compound 0.1265 µM) of the same compound?
Its relative viability is 0.967.

And the relative viability (PC-3 [JPC-3]; first compound 0.4 µM)?
Its relative viability is 0.806.

What about the relative viability (PC-3 [JPC-3]; first compound 1.265 µM) of the same compound?
Its relative viability is 0.766.

And the relative viability (RERF-LC-KJ; first compound 0.04 µM)?
The relative viability was 0.569.

What about the relative viability (RERF-LC-KJ; first compound 0.4 µM) of the same compound?
The relative viability was 1.06.

And the relative viability (RERF-LC-KJ; first compound 1.265 µM)?
The relative viability was 0.935.
